Reference: ChEMBL document CHEMBL4049450, “Discovery of 5-Azaindazole (GNE-955) as a Potent Pan-Pim Inhibitor with Optimized Bioavailability” (J Med Chem, 2017)
≈ marks a conversion by molar mass, not a printed value.

Experiments:
[1] = Metabolic stability in rat intestinal microsomes assessed as compound remaining after 60 mins in absence of NADPH/UDPGA; format: ADME, Intestine, Microsome; details: for remaining at 1 h: intestinal microsomes, read-out: Stability
[2] = Metabolic stability in rat intestinal microsomes assessed as compound remaining after 60 mins in presence of NADPH; format: ADME, Intestine, Microsome; details: read-out: Stability
[3] = Metabolic stability in rat intestinal microsomes assessed as compound remaining after 60 mins in presence of UDPGA; format: ADME, Intestine, Microsome; details: read-out: Stability
[4] = Metabolic stability in rat intestinal microsomes assessed as compound remaining after 60 mins in presence of NADPH/UDPGA; format: ADME, Intestine, Microsome; details: intestinal microsomes, read-out: Stability
[5] = target: Serine/threonine-protein kinase pim-1 (Homo sapiens, UniProt P11309); assay: Inhibition of PIM1 (unknown origin) using 5FAM-ARKRRRHPSGPPTA as substrate after 90 mins in presence of ATP by caliper microfluidic mobility shift assay
[6] = target: Serine/threonine-protein kinase pim-2 (Homo sapiens, UniProt Q9P1W9); assay: Inhibition of PIM2 (unknown origin) using 5FAM-ARKRRRHPSGPPTA as substrate after 90 mins in presence of ATP by caliper microfluidic mobility shift assay
[7] = target: Serine/threonine-protein kinase pim-3 (Homo sapiens, UniProt Q86V86); assay: Inhibition of PIM3 (unknown origin) using 5FAM-ARKRRRHPSGPPTA as substrate after 90 mins in presence of ATP by caliper microfluidic mobility shift assay
[8] = Kinetic solubility of compound at pH 7.4; details: buffer
[9] = Clearance in rat liver microsomes; format: ADME, microsome
[10] = Clearance in rat hepatocytes; format: ADME, cell-based, Hepatocyte
[11] = Clearance in rat at 1 mg/kg, iv; format: ADME, organism-based; details: in vivo
[12] = Oral bioavailability in rat at 5 mg/kg; format: ADME, organism-based; details: in vivo

Chain of Serine/threonine-protein kinase pim-1 (P11309 whole entry): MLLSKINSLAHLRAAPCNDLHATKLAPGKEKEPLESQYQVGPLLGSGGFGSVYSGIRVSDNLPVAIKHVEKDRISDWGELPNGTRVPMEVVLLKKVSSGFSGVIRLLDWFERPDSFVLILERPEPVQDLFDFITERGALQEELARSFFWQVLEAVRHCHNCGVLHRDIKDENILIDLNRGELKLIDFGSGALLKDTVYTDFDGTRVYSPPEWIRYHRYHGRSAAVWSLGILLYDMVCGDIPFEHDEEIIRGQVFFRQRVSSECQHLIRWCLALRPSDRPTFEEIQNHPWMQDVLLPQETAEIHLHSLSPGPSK
Chain of Serine/threonine-protein kinase pim-2 (Q9P1W9 whole entry): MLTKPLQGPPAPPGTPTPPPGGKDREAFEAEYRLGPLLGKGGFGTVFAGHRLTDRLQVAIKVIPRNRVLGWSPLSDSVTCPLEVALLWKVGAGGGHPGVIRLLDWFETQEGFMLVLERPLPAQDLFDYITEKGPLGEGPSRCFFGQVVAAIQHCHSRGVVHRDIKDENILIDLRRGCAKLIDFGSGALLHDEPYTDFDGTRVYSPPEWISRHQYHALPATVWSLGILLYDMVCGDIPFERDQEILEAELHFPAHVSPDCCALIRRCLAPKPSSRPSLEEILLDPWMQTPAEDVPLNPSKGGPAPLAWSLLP

remaining at 1 h [1]	remaining at 1 h [2]	remaining at 1 h [3]	remaining at 1 h [4]	Ki [5]	Ki [6]	Ki [7]	solubility kinetic [8]	CLhep predicted [9]	CLhep predicted [10]	Stability ([1]; microsomes, 1 h)	clearance [11]	bioavailability [12]	Compound
82%	91%	0.4%	0.4%	0.3 nM	3 nM	0.1 nM							CCn1cc(-c2cc3c(-c4cccc(N5CCN(C)CC5)n4)n[nH]c3cn2)cn1
108%	107%	103%	98%	450 nM	7400 nM	270 nM							Cc1cncc(-c2cc(F)c3cnn(-c4cccc(N5CCCNCC5)n4)c3c2)n1
101%	101%	91%	98%	0.7 nM	18 nM	1 nM							Cc1cncc(-c2cc3c(-c4cccc(N5CCCNCC5)n4)nsc3cn2)n1
91%	84%	100%	101%	0.4 nM	7.9 nM	0.2 nM							Cc1cncc(-c2ccc3cnn(-c4cccc(N5CCCNCC5)n4)c3c2)n1
93%	34%	48%	26%	0.04 nM	0.2 nM	0.02 nM							N[C@H]1CCCN(c2cccc(-c3n[nH]c4cnc(-c5cccnc5)cc34)n2)C1
95%	91%	92%	102%	38 nM	170 nM	23 nM							Cn1cc(-c2cc3c(-c4cccc(N5CCC[C@H](N)C5)n4)nn(C)c3cn2)cn1
	120%	56%	42%				93.4 µM (≈ 36.7 µg/mL)	31 mL/min/kg	18 mL/min/kg	130%	19 mL/min/kg	1.4%	CN1CCN(c2cc3c(-c4cccc(N5CCNCC5)n4)n[nH]c3cn2)CC1=O
98%	100%	104%	102%	0.5 nM	9.6 nM	0.8 nM							Cc1cncc(-c2cc3c(ccn3-c3cccc(N4CCCNCC4)n3)cn2)n1
103%	118%	81%	80%	0.02 nM	0.48 nM	0.03 nM							Cc1cncc(-c2cc3c(cnn3-c3cccc(N4CCCNCC4)n3)nn2)n1
77%	89%	0.2%	0.4%		4 nM	0.2 nM							CCn1cc(-c2cc3c(-c4cccc(N5CCOCC5)n4)n[nH]c3cn2)cn1
106%	111%	69%	66%	0.5 nM	16 nM	0.4 nM							Cc1cncc(-c2cn3c(-c4cccc(N5CCCNCC5)n4)ncc3cn2)n1
96%	59%	103%	62%	190 nM	630 nM	120 nM							Cn1nc(-c2cccc(N3CCC[C@H](N)C3)n2)c2cc(-c3cccnc3)ncc21
87%	86%	67%	69%		0.2 nM	0.02 nM							Cn1cc(-c2cc3c(-c4cccc(N5CCC[C@H](N)C5)n4)n[nH]c3cn2)cn1
87%	100%	79%	76%	0.8 nM	13 nM	0.4 nM							Cc1cncc(-c2cnc3cnn(-c4cccc(N5CCCNCC5)n4)c3c2)n1
